Legend:
Format in all cases: cell-based, human
[1] = tested on: Peripheral blood mononuclear cells, B cells; test: BioMAP Diversity PLUS BT system (T cell dependent B cell activation); conditions: BT system
Protocol: (§1) This study examined activities of small molecules discovered in dolphin serum that had protective profiles against diseases of aging which can impact quality of life and longevity. These molecules were tested across 12 human primary cell-based systems as part of DiscoverX's BioMAP Diversity Plus program. These systems are designed to model complex human tissue and disease biology of the vasculature, skin, lung, and inflammatory tissues. Quantitative measurements of biomarker activities across this broad panel, along with comparative analysis of biological activities of known bioactive agents were used to predict and compare the efficacy and function of the four compounds. Compounds were tested at four concentrations (740 nm and 2.2, 6.7 and 20 μM).
(§2) BioMAP panels consist of human primary cell-based systems designed to model different aspects of the human body in an in vitro format. The 12 systems in the Diversity PLUS panel allow test agent characterization in an unbiased way across a broad set of systems modeling various human disease states. BioMAP systems are constructed with one or more primary cell types from healthy human donors, with stimuli (such as cytokines or growth factors) added to capture relevant signaling networks that naturally occur in human tissue or pathological conditions. Vascular biology is modeled in both a Th1 (3C system) and a Th2 (4H system) inflammatory environment, as well as in a Th1 inflammatory state specific to arterial smooth muscle cells (CASM3C system). Additional systems recapitulate aspects of the systemic immune response including monocyte-driven Th1 inflammation (LPS system) or T cell stimulation (SAg system), chronic Th1 inflammation driven by macrophage activation (lMphg system) and the T cell-dependent activation of B cells that occurs in germinal centers (BT system). The BE3C system (Th1) and the BF4T system (Th2) represent airway inflammation of the lung, while the MyoF system models myofibroblast-lung tissue remodeling. Lastly, skin biology is addressed in the KF3CT system modeling Th1 cutaneous inflammation and the HDF3CGF system modeling wound healing.
(§3) Each test agent generates a signature BioMAP profile that is created from the changes in protein biomarker readouts within individual system environments. Biomarker readouts (7-17 per system) are selected for therapeutic and biological relevance, are predictive for disease outcomes or specific drug effects and are validated using agents with known mechanism of action (MoA). Each readout is measured quantitatively by immune-based methods that detect protein (e.g., ELISA) or functional assays that measure proliferation and viability. BioMAP readouts are diverse and include cell surface receptors, cytokines, chemokines, matrix molecules and enzymes.
(§4) The Diversity PLUS panel allows test agent characterization in an unbiased way across a broad set of systems modeling various human disease states. These systems are designed to model complex human tissue and disease biology of the vasculature, skin, lung, and inflammatory tissues.
(§5) BioMAP systems are constructed with one or more primary cell types from healthy human donors, with stimuli (such as cytokines or growth factors) added to capture relevant signaling networks that naturally occur in human tissue or pathological conditions. Vascular biology is modeled in both a Th1 (3C system) and a Th2 (4H system) inflammatory environment, as well as in a Th1 inflammatory state specific to arterial smooth muscle cells (CASM3C system). Additional systems recapitulate aspects of the systemic immune response including monocyte-driven Th1 inflammation (LPS system) or T cell stimulation (SAg system), chronic Th1 inflammation driven by macrophage activation (lMphg system) and the T cell-dependent activation of B cells that occurs in germinal centers (BT system).

[2] = tested on: Bronchial epithelial cells, dermal fibroblasts; test: BioMAP Diversity PLUS BF4T system (Th2 type lung inflammation)
Protocol: as §1, §2
as §3, with “enzymes. In total, the Diversity PLUS panel contains 148 biomarker readouts that capture biological changes that occur within the physiological context of the particular BioMAP system. Specific BioMAP activities have been correlated to in vivo biology, and multiparameter BioMAP profiles have been used to distinguish compounds based on MoA and target selectivity across diverse physiological systems.” for “enzymes.”
(§6) The Diversity PLUS panel allows test agent characterization in an unbiased way across a broad set of systems modeling various human disease states. These systems are designed to model complex human tissue and disease biology of the vasculature, skin, lung, and inflammatory tissues. Quantitative measurements of 148 biomarker activities across this broad panel, along with comparative analysis of biological activities from known bioactive agents, were used to predict and compare the efficacy and function of each selected compound at four concentrations (740 nm and 2.2, 6.7 and 20 μM). […]

[3] = tested on: Bronchial epithelial cells; test: BioMAP Diversity PLUS BE3C system (Th1 type lung inflammation)
Protocol: as §1, §2
as §3, with “enzymes. In total, the Diversity PLUS panel contains 148 biomarker readouts that capture biological changes that occur within the physiological context of the particular BioMAP system. Specific BioMAP activities have been correlated to in vivo biology, and multiparameter BioMAP profiles have been used to distinguish compounds based on MoA and target selectivity across diverse physiological systems.” for “enzymes.”
as §6

Dermal fibroblasts = test: BioMAP Diversity PLUS HDF3CGF system (wound healing and matrix/tissue remodeling); conditions: HDF3CGF system
Protocol: as §1, §2, §3, §4, §5

Lung fibroblasts = test: BioMAP Diversity PLUS MyoF system (myofibroblast differentiation and tissue remodeling)
Protocol: as §1, §2
as §3, with “enzymes. In total, the Diversity PLUS panel contains 148 biomarker readouts that capture biological changes that occur within the physiological context of the particular BioMAP system. Specific BioMAP activities have been correlated to in vivo biology, and multiparameter BioMAP profiles have been used to distinguish compounds based on MoA and target selectivity across diverse physiological systems.” for “enzymes.”
as §6

[4] = tested on: Macrophages, venular endothelial cells; test: BioMAP Diversity PLUS lMphg system (Th1 type chronic inflammation, macrophage activation); conditions: /Mphg system
Protocol: as §1, §2
as §3, with “enzymes. In total, the Diversity PLUS panel contains 148 biomarker readouts that capture biological changes that occur within the physiological context of the particular BioMAP system. Specific BioMAP activities have been correlated to in vivo biology, and multiparameter BioMAP profiles have been used to distinguish compounds based on MoA and target selectivity across diverse physiological systems.” for “enzymes.”
as §6

[5] = tested on: Coronary artery smooth muscle cells; test: BioMAP Diversity PLUS CASM3C system (Th1 type vascular inflammation); conditions: for Significant log10 reduction compared to nontreated controls: Serum amyloid A: CASM3C system
Protocol: as §1, §2, §3, §4, §5

## CCCCC/C=C\C/C=C\C/C=C\C/C=C\CCCC(=O)O[C@H](COC(=O)CCCCCCCCCCCCCCC)COP(=O)([O-])OCC[N+](C)(C)C [1-palmitoyl-2-arachidonoyl-GPC]
[1]; 2.2 μM
  Significant log10 reduction compared to nontreated controls: Secreted interleukin 17F (IL-17F): −0.12 log10
[1]; 20.0 μM
  Significant log10 reduction compared to nontreated controls: Secreted interleukin 2 (IL-2): −0.27 log10
  Significant log10 reduction compared to nontreated controls: Secreted interleukin 17F (IL-17F): −0.24 log10
  Significant log10 reduction compared to nontreated controls: Secreted tumor necrosis factor alpha (TNFα): −0.16 log10
[2]; 2.2 μM
  Significant log10 reduction compared to nontreated controls: Eotaxin 3 (CCL26): −0.11 log10
[2]; 6.7 μM
  Significant log10 reduction compared to nontreated controls: Eotaxin 3 (CCL26): −0.24 log10
  Significant log10 reduction compared to nontreated controls: Plasminogen activation inhibitor 1 (PAI-1): −0.07 log10
[2]; 20.0 μM
  Significant log10 reduction compared to nontreated controls: Eotaxin 3 (CCL26): −0.58 log10
  Significant log10 reduction compared to nontreated controls: Plasminogen activation inhibitor 1 (PAI-1): −0.19 log10
[3]; 6.7 μM
  Significant log10 reduction compared to nontreated controls: Keratin 8/18: −0.08 log10
[3]; 20.0 μM
  Significant log10 reduction compared to nontreated controls: Interleukin 8 (IL-8)/CXCL8: −0.12 log10
  Significant log10 reduction compared to nontreated controls: Matrix metalloproteinase 9 (MMP-9): −0.11 log10
  Significant log10 reduction compared to nontreated controls: Plasminogen activation inhibitor 1 (PAI-1): −0.12 log10
Dermal fibroblasts; 20.0 μM
  Significant log10 reduction compared to nontreated controls: Plasminogen activation inhibitor 1 (PAI-1): −0.11 log10
Lung fibroblasts; 0.7 μM
  Significant log10 reduction compared to nontreated controls: Alpha smooth muscle actin (αSMA): −0.07 log10
Lung fibroblasts; 2.2 μM
  Significant log10 reduction compared to nontreated controls: Alpha smooth muscle actin (αSMA): −0.09 log10
Lung fibroblasts; 6.7 μM
  Significant log10 reduction compared to nontreated controls: Alpha smooth muscle actin (αSMA): −0.10 log10
Lung fibroblasts; 20.0 μM
  Significant log10 reduction compared to nontreated controls: Alpha smooth muscle actin (αSMA): −0.18 log10
[4]; 2.2 μM
  Significant log10 reduction compared to nontreated controls: Monocyte chemoattractant protein 1 (MCP-1): −0.12 log10
[4]; 6.7 μM
  Significant log10 reduction compared to nontreated controls: Monocyte chemoattractant protein 1 (MCP-1): −0.13 log10
  Significant log10 reduction compared to nontreated controls: Secreted interleukin 10 (IL-10): −0.18 log10
[4]; 20.0 μM
  Significant log10 reduction compared to nontreated controls: CD69: −0.11 log10
  Significant log10 reduction compared to nontreated controls: Monocyte chemoattractant protein 1 (MCP-1): −0.18 log10

## CCCCCCC=CCCCCCCCCC(=O)O [10-heptadecanoate]
[2]; 2.2 μM
  Significant log10 reduction compared to nontreated controls: Eotaxin 3 (CCL26): −0.10 log10
[2]; 6.7 μM
  Significant log10 reduction compared to nontreated controls: Eotaxin 3 (CCL26): −0.13 log10
[2]; 20.0 μM
  Significant log10 reduction compared to nontreated controls: Eotaxin 3 (CCL26): −0.31 log10
[5]; 2.2 μM
  Significant log10 reduction compared to nontreated controls: Serum amyloid A: −0.13 log10
Dermal fibroblasts; 6.7 μM
  Significant log10 reduction compared to nontreated controls: Macrophage colony-stimulating factor (M-CSF): −0.1 log10
  Significant log10 reduction compared to nontreated controls: Vascular cell adhesion molecule 1 (VCAM-1): −0.17 log10

## NC(=O)CC[C@H](NC(=O)CC[C@H](N)C(=O)O)C(=O)O [Gamma-glutamylglutamine]
[1]; 20.0 μM
  Significant log10 reduction compared to nontreated controls: Secreted interleukin 6 (IL-6): −0.13 log10
[5]; CASM3C system (as aligned in the table), 20.0 μM
  Significant log10 reduction compared to nontreated controls: Vascular cell adhesion molecule 1 (VCAM-1): −0.15 log10
[5]; 6.7 μM
  Significant log10 reduction compared to nontreated controls: Serum amyloid A: −0.11 log10
Dermal fibroblasts; 20.0 μM
  Significant log10 reduction compared to nontreated controls: Collagen III: −0.10 log10
[4]; 0.7 μM
  Significant log10 reduction compared to nontreated controls: Monocyte chemoattractant protein 1 (MCP-1): −0.18 log10
[4]; 2.2 μM
  Significant log10 reduction compared to nontreated controls: Monocyte chemoattractant protein 1 (MCP-1): −0.10 log10
[4]; 20.0 μM
  Significant log10 reduction compared to nontreated controls: Interleukin 1 alpha (IL-1α): −0.16 log10

— patent publication US11992473B2, “Compositions and methods for diagnosis and treatment of conditions related to the quality of aging and longevity” (Epitracker, Inc., priority 2018, dated 2024)
